Measurements: patent US20160333019A1, “SYNTHESIS AND FORMULATIONS OF PORPHYRIN COMPOUNDS” (Aeolus Sciences, Inc., priority 2013, published 2016)

Legend:
Assay type in all cases: physicochemical
[1] = Study 5: 75 mg/mL Formula (VI) in WFI at various pH under ICH storage temperatures; conditions: for pH change: 75 mg/mL at pH 6
Description: It was noticeable from Study 2 that drug stability was dependent on the pH. The lower the pH, the greater the chemical stability. […] An accelerated 60° C. storage temperature was also accessed in order to compare and generate a pH-stability profile of drug in water.
(§1) About 10 g of WFI was placed in the container including a stir bar. […] The pH was measured and the solution was mixed at room temperature for 16-24 hours. At the end of the 16-24 hour hold/mix, the pH of solution was adjusted to pH 4.0 with either HCl or NaOH and mixed for about 15 minutes. The solution was filtered through a PVDF, 0.22 μm filter by discarding about 1 mL prior to placing about 4-5 mL into each of four separate clean containers (A, B, C, D). The pH of the samples was then measured. Solution A was stored at 2-8° C., solution B at 25° C., solution C at 30° C. and solution D at 40° C. A sample was removed from each container after 3, 7 and 14 days the pH measured.
as §1, with “5.0” for “4.0”
as §1, with “6.0” for “4.0”

[2] = Study 4: 75 mg/mL Formula (VI) in WFI at pH 7.0 under ICH storage temperatures; conditions: after 1 month
Description: as §1, with “7.0” for “4.0”, “A sample was removed from each container after 3, 7 and 14 days the pH measured.” left out

[3] = pH titration of 75 mg/mL Formula (VI) in WFI with 1.0N HCl; conditions: 75 mg/mL in water titrated with hydrochloric acid
Description: A solution of 75 mg/mL compound was prepared by dissolving in WFI and gently mixing for 16-24 hours prior to the titration. The titration of compound with a strong acid provided information for this compound in terms of “apparent” pKa.
In addition, this mixing would allow oxidation of trace Mn (II) compound to the higher oxidation state of Mn (III). The drug solution was titrated with 1.0 N HCl at 30 μL increments.
About 10 g of WFI was placed in the container including stir bar. […] The solution was them mixed at room temperature for 16-24 hours. At the end of the 16-24 hour hold/mix, the solution was titrated from its starting pH of about 9 down to pH 3 using 1N HCl.
Due to a big molecular structure (MW=1033), the sample preparation required an unusually long mixing process for 16-24 hours in order to complete the dissociation of drug and the oxidation of trace […] compound into a higher oxidation state of Mn (III). This mixing process was crucial to achieve the final pH equilibrium.

[4] = 75 mg/mL, 60° C. for 14 days, within pH profile range 4.1-6.5

[5,10,15,20-tetrakis(1,3-diethylimidazolium-2-yl)porphyrinato]manganese(III) chloride hydrate complex [Formula (VI)]
pH variation ([1]; 75 mg/mL at pH 4 and 5, all storage conditions, after 14 days): ≤ 0.1 pH unit | pH decrease ([1]; 75 mg/mL at pH 5, 60° C., after 14 days): ~0.2 pH units | pH change ([1]; 2-8° C., after 14 days): 0.7 pH units | pH change ([1]; 25° C., after 14 days): 0.5 pH units | pH change ([1]; 40° C., after 14 days): −0.1 pH units | pH change ([1]; 60° C., after 14 days): −0.9 pH units | change of purity assays ([1]; 75 mg/mL in water, samples at pH between 4.1 and 6.8, after 14 days): No significant changes | decrease in drug purity assay ([1]; 75 mg/mL, 60° C. for 14 days, increase of pH between 4.1 and 6.5): ~5% | increase of degradant at RRT 1.56-1.62 [1, 4]: ~8 folds | level of degradant at RRT 1.56-1.62 [1, 4]: 0.4-3.2% | decrease of purity assay ([1]; 60° C. samples, between pH 4.1 and 5.2): ~3% | osmolality ([1]; pH 4 sample, 60° C. storage): 292 mOsm/kg | osmolality ([1]; pH 4 samples, 2-8, 25 and 40° C., after 14 days): 277-280 mOsm/kg | osmolality ([1]; pH 5 sample, 60° C. storage): 302 mOsm/kg | osmolality ([1]; pH 5 samples, 2-8, 25 and 40° C., after 14 days): 273-275 mOsm/kg | osmolality ([1]; pH 6 sample, 60° C. storage): 283 mOsm/kg | osmolality ([1]; pH 6 samples, 2-8, 25 and 40° C., after 14 days): 269-272 mOsm/kg | chemical stability ([2]; 75 mg/mL in water pH 7, each storage condition): No significant change | pH decrease ([2]; 75 mg/mL pH 7, 25° C.): approximately 0.3 pH units | pH decrease ([2]; 75 mg/mL pH 7, 30° C.): ~0.5 pH units | pH decrease ([2]; 75 mg/mL pH 7, 40° C.): ~1.1 pH units | osmolality ([2]; 75 mg/mL pH 7, all samples): 270-276 mOsm/kg | pH change ([2]; 75 mg/mL pH 7, refrigerated sample): ≤ 0.1 pH unit | "apparent" pKa [3]: 9.02
